Measured values as given in patent publication US20230085307A1, “PYRIDAZINONE COMPOUND AND HERBICIDE” (NISSAN CHEMICAL CORPORATION, priority 2019, published 2023).

Assays:
late watergrass = assay: Test Example 1: herbicidal activity, application before weed generation under submerged conditions (Table 16, symbol A); type: in vivo, late watergrass (Echinochloa oryzicola)
Method in brief: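 Alluvial soil was flooded to 4 cm depth, weed seeds were sown mixed and 2.5-leaf rice seedlings were transplanted. On sowing day, the compound's emulsion, diluted in water to a set dose, was applied to the water surface. Plants grew at 25–30 °C and were scored 0–5 after three weeks.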

false cleavers = assay: Test Example 5: herbicidal effect by foliage application, plastic box (Table 20, symbol Q); type: in vivo, false cleavers (Galium spurium); conditions: foliage application, 320 g/ha, 3 weeks after application
Method in brief: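 Sow seeds spot-wise in sterilized diluvial soil; cover with ~1.5 cm soil. Grow 14 days in greenhouse, 25° C. to 30° C. Spray foliage with emulsion diluted to predetermined amount. Rate effect after 3 weeks.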

With `C=CCC(C)Oc1ccc(-c2sc3ccccc3c2-c2c(O)c(C)nn(C)c2=O)cc1` (racemic) [1-213] the “Herbicidal effect on A: late watergrass (grade 0-5)” value (“Herbicidal effect” for short) (late watergrass; 320 g/ha applied herbicide) was 5 (Herbicidal rate of 90% or more (almost completely withered)).
With `COCC(C)Oc1ccc(-c2sc3ccccc3c2-c2c(O)c(C)nn(C)c2=O)cc1` (racemic) [1-228] the “Herbicidal effect” value (late watergrass; 320 g/ha applied herbicide) was 5 (Herbicidal rate of 90% or more (almost completely withered)).
With `CCC(COc1ccc(-c2sc3ccccc3c2-c2c(O)c(C)nn(C)c2=O)cc1)OC` (racemic) [1-230] the “Herbicidal effect” value (late watergrass; 320 g/ha applied herbicide) was 5 (Herbicidal rate of 90% or more (almost completely withered)).
`CCCC(=O)Oc1c(C)nn(C)c(=O)c1-c1c(-c2ccc(OCC)cc2)sc2ccccc12` [1-014] was tested, and the “Herbicidal effect” value (late watergrass; 320 g/ha applied herbicide) was 5 (Herbicidal rate of 90% or more (almost completely withered)).
With `CCCC(=O)Oc1c(C)nn(C)c(=O)c1-c1c(-c2ccc(OC)c(OC)c2)sc2ccccc12` [1-073] the “Herbicidal effect” value (late watergrass; 320 g/ha applied herbicide) was 5 (Herbicidal rate of 90% or more (almost completely withered)).
For `CCCC(=O)Oc1c(C)nn(C)c(=O)c1-c1c(-c2ccc3c(c2)OCCO3)sc2ccccc12` [1-090], the “Herbicidal effect” value (late watergrass; 320 g/ha applied herbicide) was 5 (Herbicidal rate of 90% or more (almost completely withered)).
With `Cc1nn(C)c(=O)c(-c2c(-c3cnc4ccccc4c3)sc3ccccc23)c1O` [1-108] the “Herbicidal effect” value (late watergrass; 320 g/ha applied herbicide) was 3 (Herbicidal rate of 40% or more and less than 70%).
With `CCCC(=O)Oc1c(C)nn(C)c(=O)c1-c1c(-c2ccc(C(C)C)cc2)sc2ccccc12` [1-126] the “Herbicidal effect” value (late watergrass; 320 g/ha applied herbicide) was 3 (Herbicidal rate of 40% or more and less than 70%).
In the case of `Cc1nn(C)c(=O)c(-c2c(-c3ccc(OCc4ccccc4)cc3)sc3ccccc23)c1O` [1-133], the “Herbicidal effect” value (late watergrass; 320 g/ha applied herbicide) is reported as 5 (Herbicidal rate of 90% or more (almost completely withered)).
With `Cc1nn(C)c(=O)c(-c2c(-c3ccc(OCC4CC4(F)F)cc3)sc3ccccc23)c1O` (stereo not shown) [1-138] the “Herbicidal effect” value (late watergrass; 320 g/ha applied herbicide) was 3 (Herbicidal rate of 40% or more and less than 70%).
With `CSCCOc1ccc(-c2sc3ccccc3c2-c2c(O)c(C)nn(C)c2=O)cc1` [1-141] the “Herbicidal effect” value (late watergrass; 320 g/ha applied herbicide) was 3 (Herbicidal rate of 40% or more and less than 70%).
`Cc1nn(C)c(=O)c(-c2c(-c3ccc(OCC4CC4)cc3)sc3ccccc23)c1O` [1-142] was tested, and the “Herbicidal effect” value (late watergrass; 320 g/ha applied herbicide) was 3 (Herbicidal rate of 40% or more and less than 70%).
In the case of `COCCOc1ccc(-c2sc3ccccc3c2-c2c(O)c(C)nn(C)c2=O)cc1` [1-148], the “Herbicidal effect” value (late watergrass; 368 g/ha applied herbicide) is reported as 3 (Herbicidal rate of 40% or more and less than 70%).
In the case of `Cc1nn(C)c(=O)c(-c2c(-c3ccc(OCCC(F)(F)F)cc3)sc3ccccc23)c1O` [1-206], the “Herbicidal effect” value (late watergrass; 320 g/ha applied herbicide) is reported as 5 (Herbicidal rate of 90% or more (almost completely withered)).
For `C=C(Br)COc1ccc(-c2sc3ccccc3c2-c2c(O)c(C)nn(C)c2=O)cc1` [1-215], the “Herbicidal effect” value (late watergrass; 320 g/ha applied herbicide) was 5 (Herbicidal rate of 90% or more (almost completely withered)).
In the case of `CSCCSCc1ccc(-c2sc3ccccc3c2-c2c(O)c(C)nn(C)c2=O)cc1` [1-253], the “Herbicidal effect” value (late watergrass; 320 g/ha applied herbicide) is reported as 3 (Herbicidal rate of 40% or more and less than 70%).
With `Cc1ccc(-c2sc3ccc(F)cc3c2-c2c(O)c(C)nn(C)c2=O)cc1` [2-012] the “Herbicidal effect” value (late watergrass; 320 g/ha applied herbicide) was 3 (Herbicidal rate of 40% or more and less than 70%).
`CCCC(=O)Oc1c(C)nn(C)c(=O)c1-c1c(-c2ccc(C)cc2)sc2ccc(F)cc12` [2-013] was tested, and the “Herbicidal effect” value (late watergrass; 320 g/ha applied herbicide) was 3 (Herbicidal rate of 40% or more and less than 70%).
For `COc1ccc(-c2sc3ccc(F)cc3c2-c2c(O)c(C)nn(C)c2=O)cc1` [2-026], the “effect on false cleavers (Q)” value (false cleavers) was 4 (Herbicidal rate of 70% or more and less than 90%) and the “Herbicidal effect” value (late watergrass; 320 g/ha applied herbicide) was 3 (Herbicidal rate of 40% or more and less than 70%).
In the case of `CCCCOc1ccc(-c2sc3ccc(F)cc3c2-c2c(O)c(C)nn(C)c2=O)cc1` [2-036], the “effect on false cleavers (Q)” value (false cleavers) is reported as 4 (Herbicidal rate of 70% or more and less than 90%) and the “Herbicidal effect” value (late watergrass; 320 g/ha applied herbicide) is reported as 3 (Herbicidal rate of 40% or more and less than 70%).
For `CCCC(=O)Oc1c(C)nn(C)c(=O)c1-c1c(-c2ccc(OC(F)(F)F)cc2)sc2ccc(F)cc12` [2-046], the “Herbicidal effect” value (late watergrass; 320 g/ha applied herbicide) was 4 (Herbicidal rate of 70% or more and less than 90%).
`Cc1nn(C)c(=O)c(-c2c(-c3ccc(OCCF)cc3)sc3ccc(F)cc23)c1O` [2-047] was tested, and the “Herbicidal effect” value (late watergrass; 320 g/ha applied herbicide) was 3 (Herbicidal rate of 40% or more and less than 70%).
For `Cc1nn(C)c(=O)c(-c2c(-c3ccc(OCC(F)(F)F)cc3)sc3ccc(F)cc23)c1O` [2-049], the “Herbicidal effect” value (late watergrass; 320 g/ha applied herbicide) was 2 (Herbicidal rate of 20% or more and less than 40%).
`C=CCOc1ccc(-c2sc3ccc(F)cc3c2-c2c(O)c(C)nn(C)c2=O)cc1` [2-051] was tested, and the “Herbicidal effect” value (late watergrass; 320 g/ha applied herbicide) was 3 (Herbicidal rate of 40% or more and less than 70%).
`C#CCOc1ccc(-c2sc3ccc(F)cc3c2-c2c(O)c(C)nn(C)c2=O)cc1` [2-053] was tested, and the “Herbicidal effect” value (late watergrass; 320 g/ha applied herbicide) was 2 (Herbicidal rate of 20% or more and less than 40%).
In the case of `CSc1ccc(-c2sc3ccc(F)cc3c2-c2c(O)c(C)nn(C)c2=O)cc1` [2-076], the “Herbicidal effect” value (late watergrass; 320 g/ha applied herbicide) is reported as 3 (Herbicidal rate of 40% or more and less than 70%).
`CCCC(=O)Oc1c(C)nn(C)c(=O)c1-c1c(-c2ccc(SC)cc2)sc2ccc(F)cc12` [2-077] was tested, and the “Herbicidal effect” value (late watergrass; 320 g/ha applied herbicide) was 3 (Herbicidal rate of 40% or more and less than 70%).
With `CCCC(=O)Oc1c(C)nn(C)c(=O)c1-c1c(-c2ccc(C(C)=NOC)cc2)sc2ccc(F)cc12` [2-080] the “Herbicidal effect” value (late watergrass; 320 g/ha applied herbicide) was 5 (Herbicidal rate of 90% or more (almost completely withered)).
For `Cc1nn(C)c(=O)c(-c2c(-c3ccc(C(F)(F)F)cc3)sc3ccc(Cl)cc23)c1O` [2-111], the “Herbicidal effect” value (late watergrass; 320 g/ha applied herbicide) was 3 (Herbicidal rate of 40% or more and less than 70%).
For `CCCC(=O)Oc1c(C)nn(C)c(=O)c1-c1c(-c2ccccc2OC)sc2ccc(C)cc12` [2-139], the “Herbicidal effect” value (late watergrass; 320 g/ha applied herbicide) was 4 (Herbicidal rate of 70% or more and less than 90%).
With `C=Cc1ccc2sc(-c3ccccc3OC)c(-c3c(O)c(C)nn(C)c3=O)c2c1` [2-185] the “Herbicidal effect” value (late watergrass; 320 g/ha applied herbicide) was 0 (Herbicidal rate of 5% or less (almost no effect)).
`Cc1nn(C)c(=O)c(-c2c(-c3ccccc3)sc3ccc(F)cc23)c1O` [2-197] was tested, and the “Herbicidal effect” value (late watergrass; 320 g/ha applied herbicide) was 3 (Herbicidal rate of 40% or more and less than 70%).
In the case of `CCCC(=O)Oc1c(C)nn(C)c(=O)c1-c1c(-c2ccccc2)sc2ccc(F)cc12` [2-198], the “Herbicidal effect” value (late watergrass; 320 g/ha applied herbicide) is reported as 5 (Herbicidal rate of 90% or more (almost completely withered)).
`Cc1nn(C)c(=O)c(-c2c(-c3ccccc3F)sc3ccc(F)cc23)c1O` [2-199] was tested, and the “Herbicidal effect” value (late watergrass; 320 g/ha applied herbicide) was 1 (Herbicidal rate of 5% or more and less than 20%).
With `CCCC(=O)Oc1c(C)nn(C)c(=O)c1-c1c(-c2ccc(Br)cc2)sc2ccc(F)cc12` [2-206] the “Herbicidal effect” value (late watergrass; 320 g/ha applied herbicide) was 5 (Herbicidal rate of 90% or more (almost completely withered)).
For `CCc1ccc(-c2sc3ccc(F)cc3c2-c2c(O)c(C)nn(C)c2=O)cc1` [2-207], the “Herbicidal effect” value (late watergrass; 320 g/ha applied herbicide) was 2 (Herbicidal rate of 20% or more and less than 40%).
In the case of `Cc1nn(C)c(=O)c(-c2c(-c3cccc(OCC(C)C)c3)sc3ccc(F)cc23)c1O` [2-221], the “Herbicidal effect” value (late watergrass; 320 g/ha applied herbicide) is reported as 5 (Herbicidal rate of 90% or more (almost completely withered)).
`Cc1nn(C)c(=O)c(-c2c(-c3cccc(OC(C)(C)C)c3)sc3ccc(F)cc23)c1O` [2-223] was tested, and the “Herbicidal effect” value (late watergrass; 320 g/ha applied herbicide) was 4 (Herbicidal rate of 70% or more and less than 90%).
In the case of `CCCC(=O)Oc1c(C)nn(C)c(=O)c1-c1c(-c2ccc(C(F)F)cc2)sc2ccc(F)cc12` [2-228], the “Herbicidal effect” value (late watergrass; 320 g/ha applied herbicide) is reported as 5 (Herbicidal rate of 90% or more (almost completely withered)).
For `CCSc1ccc(-c2sc3ccc(F)cc3c2-c2c(O)c(C)nn(C)c2=O)cc1` [2-244], the “Herbicidal effect” value (late watergrass; 320 g/ha applied herbicide) was 3 (Herbicidal rate of 40% or more and less than 70%).
`CCCC(=O)Oc1c(C)nn(C)c(=O)c1-c1c(-c2ccc(SCC)cc2)sc2ccc(F)cc12` [2-245] was tested, and the “Herbicidal effect” value (late watergrass; 320 g/ha applied herbicide) was 4 (Herbicidal rate of 70% or more and less than 90%).
With `Cc1nn(C)c(=O)c(-c2c(-c3ccc(SC4CC4)cc3)sc3ccc(F)cc23)c1O` [2-254] the “Herbicidal effect” value (late watergrass; 320 g/ha applied herbicide) was 5 (Herbicidal rate of 90% or more (almost completely withered)).
`Cc1nn(C)c(=O)c(-c2c(-c3ccc([S+]([O-])C(C)C)cc3)sc3ccc(F)cc23)c1O` (stereo not shown) [2-257] was tested, and the “Herbicidal effect” value (late watergrass; 320 g/ha applied herbicide) was 1 (Herbicidal rate of 5% or more and less than 20%).
`Cc1nn(C)c(=O)c(-c2c(-c3ccc(S(C)(=O)=O)cc3)sc3ccc(F)cc23)c1O` [2-258] was tested, and the “Herbicidal effect” value (late watergrass; 320 g/ha applied herbicide) was 5 (Herbicidal rate of 90% or more (almost completely withered)).
With `Cc1nn(C)c(=O)c(-c2c(-c3ccc(OC(F)F)cc3)sc3ccc(F)cc23)c1OC(=O)c1ccc(Cl)cc1` [2-286] the “Herbicidal effect” value (late watergrass; 320 g/ha applied herbicide) was 5 (Herbicidal rate of 90% or more (almost completely withered)).
For `Cc1nn(C)c(=O)c(-c2c(-c3ccc(OC(F)F)cc3)sc3ccc(F)cc23)c1OC(=O)c1ccco1` [2-287], the “Herbicidal effect” value (late watergrass; 320 g/ha applied herbicide) was 5 (Herbicidal rate of 90% or more (almost completely withered)).
With `Cc1nn(C)c(=O)c(-c2c(-c3ccc(OC(F)F)cc3)sc3ccc(F)cc23)c1OC(=O)C1CCCO1` (stereo not shown) [2-289] the “Herbicidal effect” value (late watergrass; 320 g/ha applied herbicide) was 4 (Herbicidal rate of 70% or more and less than 90%).
For `CCOC(=O)Oc1c(C)nn(C)c(=O)c1-c1c(-c2ccc(OC(F)F)cc2)sc2ccc(F)cc12` [2-292], the “Herbicidal effect” value (late watergrass; 320 g/ha applied herbicide) was 5 (Herbicidal rate of 90% or more (almost completely withered)).
In the case of `Cc1nn(C)c(=O)c(-c2c(-c3ccc(OC(F)F)cc3)sc3ccc(F)cc23)c1OCC(=O)c1ccccc1` [2-305], the “Herbicidal effect” value (late watergrass; 320 g/ha applied herbicide) is reported as 3 (Herbicidal rate of 40% or more and less than 70%).
With `CC(=O)c1ccc(-c2sc3ccc(F)cc3c2-c2c(O)c(C)nn(C)c2=O)cc1` [2-339] the “Herbicidal effect” value (late watergrass; 320 g/ha applied herbicide) was 4 (Herbicidal rate of 70% or more and less than 90%).
